Laboratory results reported in US11708330B2, “Compounds, compositions, methods for treating diseases, and methods for preparing compounds” (UNIVERSITY OF LOUISVILLE RESEARCH FOUNDATION, INC., priority 2017, dated 2023).

Assays:
[1] = test system: subcutaneous Lewis lung carcinoma tumors; assay: Tumor glucose uptake in vivo by FDG-PET; parameters: species or system C57BL/6 mice; details: 40 mg/kg PO x1, PET 60 minutes after dose, versus vehicle (FIG. 9)
Method: The efficacy of Formula (I) to decrease tumor glucose uptake was examined by positron emission tomography (PET) following ^18F-fluoro-2-deoxy-glucose (FDG) injection. […] Method: FDG-PET was conducted on tumor-bearing mice to determine acute effects of Formula (I) on glucose uptake. C57BL/6 mice (Charles River) with subcutaneous Lewis lung carcinoma tumors were injected intraperitoneally with 100 μCi of ^18F-fluoro-2-deoxy-glucose under isoflurane anesthesia and subjected to a 15-minute static scan 45 minutes after tracer injection at baseline. Twenty-four hours later, the same animals were administered vehicle (DMSO) or Formula (I) (in DMSO, 40 mg/kg, PO×1), and, after 60 minutes, FDG uptake determined by PET scan. Tumor/cerebellum ROI (regions of interest) were quantified, representative sagittal cuts from mice are shown with arrows showing the tumors on the animals. (* signifies statistical significance).

[2] = test system: Lewis lung carcinoma cells; assay: Tumor growth in vivo, syngeneic Lewis lung carcinoma model; parameters: species or system C57BL/6 mice; details: daily oral 40 mg/kg in DMSO, 9 days, established tumors ~150-200 mg (FIG. 8)
Description: The efficacy of Formula (I) in decreasing the growth of tumors in vivo was examined Mice were implanted with Lewis lung carcinoma cells and after tumors were noted, dosed daily with DMSO±Formula (I) by gavage and tumor growth followed. […] Data shown as mean±SEM for each timepoint. C57BL/6 mice (Charles River) were implanted with 1×10^6 Lewis lung carcinoma cells subcutaneously and, after tumors developed, were followed by caliper measurements daily to quantify tumor mass using the formula: tumor mass=(length×width^2)/2. When tumors were ˜150-200 mg, mice were randomized to daily oral DMSO±Formula (I) (n=10/group) at 40 mg/kg in 50 μL DMSO and tumor growth followed×9 days. (* signifies statistical significance)

[3] = test system: cancer cells; assay: Glycolysis in cells, 3H2O production from 5-[3H]glucose; type: cell-based; details: two independently run experiments (FIG. 4A, 4B)
Description: The effect of Formula (I) on the glycolytic pathway was examined to determine the ability of this inhibitor to decrease glycolysis secondary to its effect on PFKFB4-driven F26BP production. PFKFB4 produces F26BP which activates a rate-limiting enzyme of the glycolytic pathway, […] (PFK-1). […] Data in FIG. 4A and FIG. 4B are shown as the production of ^3H2O by Formula (I) relative to DMSO and normalized to protein concentration.
Method: To examine glycolysis, cells growing in 6-well plates were incubated in 500 μl of complete medium containing 1 μCi of […] per well for 60 min in 5% CO2 at 37° C. The medium was then collected and centrifuged to pellet any suspended cells. […] The amounts of ^3H2O that had diffused into the surrounding H2O was measured on a Tri-Carb 2910 liquid scintillation analyzer (Perkin Elmer) and compared with ^3H2O and 5-[^3H]glucose standards. Protein concentration was determined using the BCA assay and counts were normalized to protein concentration (previously described in CHESNEY et al., “Fructose-2,6-bisphosphate synthesis by 6-phosphofructo-2-kinase/fructose-2,6-bisphosphatase 4 (PFKFB4) is required for the glycolytic response to hypoxia and tumor growth” Oncotarget (2014) Vol. 5, No. 16, pp. 6670-6686, which is herein incorporated by reference in its entirety).

[4] = test system: cancer cells; assay: Intracellular fructose-2,6-bisphosphate (F26BP) in cells; type: cell-based; details: increasing concentrations; two independently run experiments (FIG. 3A, 3B)
Method: The ability of Formula (I) to inhibit the activity of the PFKFB4 enzyme in cells was measured by examining the effect of the inhibitor on the levels of the product of the PFKFB4 enzyme, fructose-2,6-bisphosphate (F26BP). […] Data in FIG. 3 are shown as the concentration of intracellular F26BP normalized to cellular protein concentration.
In order to measure F26BP, cells were exposed to increasing concentrations of Formula (I) and were harvested, washed with PBS, lysed in NaOH/Tris acetate by heating at 80° C. and lysates neutralized to pH 7.2. F26BP content was measured using a coupled enzyme reaction following the method of Van Schaftingen (VAN SCHAFTINGEN et al, “A kinetic study of pyrophosphate: fructose-6-phosphate phosphotransferase from potato tubers. Application to a microassay of fructose 2,6-bisphosphate” Eur J Biochem. (1982) Vol. 129, No. 1, pp. 191-195), which is herein incorporated by reference in its entirety. The F26BP concentration was normalized to total cellular protein measured by the bicinchoninic acid assay (BCA, Thermo Scientific).

[5] = test system: cancer cells; assay: Anchorage independent growth as colonies in soft agar; type: cell-based; details: increasing concentrations; compared with DMSO (FIG. 6)
Method: We examined the ability of Formula (I) to inhibit the anchorage independent growth of cancer cells in vitro as colonies in soft agar. […] Representative images are shown in FIG. 6A, and colonies formed were enumerated. The number of colonies formed in the presence of Formula (I) was compared with those formed in the presence of the vehicle, DMSO (FIG. 6B).
Cancer cells were plated in soft agar and the effects of increasing concentrations of Formula (I) on anchorage independent growth was examined Briefly, a feeder layer of 0.6% agarose (Agar Noble, Becton Dickinson) in RPMI with 10% fetal bovine serum was plated in 6 cm plates containing vehicle (DMSO) or increasing concentrations of Formula (I). 1×10^4 cells were re-suspended in 0.3% agarose in RPMI/10% serum containing DMSO or increasing concentrations of Formula (I) and plated on top of the feeder layer. Cells were allowed to grow at 37° C. in 5% CO2 and agarose-containing media with DMSO+/−Formula (I) was replenished every 5 days until colonies became visible. Colonies were stained with MTT [3-(4,5-dimethylthiazol-2-yl)-2,5-diphenyl tetrazolium bromide] and counted in four random 1 cm^2 areas per plate under 40× magnification and enumerated.

[6] = biological target: recombinant human PFKFB4 protein (Homo sapiens, UniProt Q16877); assay: ADP-Glo kinase assay of recombinant PFKFB4; type: biochemical; details: decrease in luminescence relative to DMSO (FIG. 1)
Sequence of recombinant human PFKFB4 protein (Q16877 whole entry): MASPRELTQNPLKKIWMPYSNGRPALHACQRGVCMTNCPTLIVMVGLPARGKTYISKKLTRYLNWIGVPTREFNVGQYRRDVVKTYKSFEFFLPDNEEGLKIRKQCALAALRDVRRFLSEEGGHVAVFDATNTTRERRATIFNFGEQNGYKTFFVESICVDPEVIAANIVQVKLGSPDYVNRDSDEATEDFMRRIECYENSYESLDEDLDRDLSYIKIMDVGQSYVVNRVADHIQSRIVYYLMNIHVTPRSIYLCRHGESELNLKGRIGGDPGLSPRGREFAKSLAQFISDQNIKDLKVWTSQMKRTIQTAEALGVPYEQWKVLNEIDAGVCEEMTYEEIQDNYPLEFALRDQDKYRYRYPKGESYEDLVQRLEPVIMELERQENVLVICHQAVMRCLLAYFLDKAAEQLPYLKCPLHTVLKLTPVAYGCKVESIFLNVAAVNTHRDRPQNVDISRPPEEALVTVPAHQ
Method: The efficacy of the compound Formula (I) in inhibiting the activity of the PFKFB4 enzyme was tested by examination of the effect of Formula (I) on the kinase activity of recombinant PFKFB4 enzyme in the ADP-Glo assay.
The efficacy of Formula (I) in inhibition of the kinase activity of the PFKFB4 enzyme was examined by exposing recombinant human PFKFB4 protein to Formula (I) in the ADP-Glo kinase assay (Promega) which measures ADP formed through a kinase reaction. Briefly, recombinant protein, ATP, substrate and Formula (I) were incubated together for the kinase reaction followed by the addition of ADP-Glo reagent, used to terminate the kinase reaction. Lastly, a kinase detection reagent was added to convert the newly formed ADP to ATP which was measured by a luciferase reaction. Data are shown in FIG. 1 as the decrease in luminescence caused by Formula (I) relative to DMSO. Decrease in Cell Proliferation by Formula (I) (Also Referred to as FBR1-12): […]

[7] = test system: cancer cells; assay: Intracellular ATP, bioluminescence assay; type: cell-based; details: two independently run experiments (FIG. 5A, 5B)
Method: The effect of Formula (I) on the production of ATP was examined as a measure of its effect on energy production by the glycolytic pathway.
To measure ATP, cells were washed (while still adherent) with cold PBS, lysed with Passive Lysis Buffer (Molecular Probes, Invitrogen) added directly to the plates, and immediately harvested by scraping. The lysates were flash frozen (to −80° C.) and thawed (to 37° C.) once to accomplish complete lysis and then centrifuged to clear the lysates. Intracellular ATP levels were determined using a bioluminescence assay (Molecular Probes), utilizing luciferase and its substrate, D-luciferin and ATP values were calculated using an ATP standard curve. The ATP concentration was normalized to protein concentration that was estimated using the BCA assay.

[8] = test system: human cancer cell lines; assay: Cell proliferation, viable cell counts by Trypan blue exclusion; type: cell-based; details: increasing concentrations; cell counts relative to DMSO, representative counts at 48 hours (FIG. 2); compared with SMPN
Method: The effect of increasing concentrations of Formula (I) on the proliferation of human cancer cells was examined in vitro. […] Data in FIG. 2 are shown as the decrease in cell counts relative to the DMSO (vehicle) control.
Method: Cells were plated in 24 well plates and exposed to increasing concentrations of Formula (I). DMSO was used as a vehicle. After 24, 48 and 72 hours of exposure, cells were detached, and viable cells were counted by Trypan blue exclusion (representative counts at 48 hours shown).

Structure (SMILES): COc1cccc2c(NCCCCCNC(=O)C(F)(F)F)ccnc12 [Formula (I), 2,2,2-trifluoro-N-(5-((8-methoxyquinolin-4-yl)amino)pentyl)acetamide]
- tumor FDG uptake (tumor/cerebellum ROI) [1]: caused a decrease in tumor FDG uptake compared with vehicle
- tumor growth (tumor mass) [2]: decreased established tumor growth in a syngeneic mouse tumor model
- glycolysis, production of 3H2O relative to DMSO normalized to protein concentration [3]: dose-dependent decrease in glycolysis in cancer cells
- intracellular F26BP normalized to cellular protein concentration [4]: dose-dependent decrease in F26BP in cancer cells
- anchorage independent growth, soft agar colonies [5]: inhibited the growth of cancer cells as soft agar colonies
- kinase activity of the PFKFB4 enzyme [6]: inhibited the kinase activity of the PFKFB4 enzyme
- production of ATP normalized to protein concentration [7]: dose-dependent decrease in the production of ATP by cancer cells
- proliferation of human cancer cell lines [8]: decreases the proliferation of human cancer cell lines in vitro with higher potency than SMPN
